Measurements from patent US20130131179A1, “IRON METABOLISM-IMPROVING AGENT” (Ajinomoto Co., Inc., priority 2006, published 2013).
Structures can show the parent of a compound that is named as a salt.

What was measured:
[1] = Citric acid administration in bilaterally nephrectomized rats; details: male, CD(SD), rat, plasma, intravenous, 0.25 mL/h of 4.5% (w/v) sodium citrate solution for 4 h
[2] = test system: bilaterally nephrectomized rats; experiment: as above; details: third group, 4.5% (w/v) sodium citrate solution by CVC 0.25 mL/h for 4 hours
[3] = Citric acid administration in a dialysis session in bilateral-kidney-extirpated rats; details: male, CD(SD), rat, plasma, intravenous
[4] = test system: bilateral-kidney-extirpated rats; experiment: as above

concentration at 4 h [1]: 211 ± 132 µg/mL
concentration at 4 h [3]: 265 µg/mL
SMILES: O=C(O)CC(O)(CC(=O)O)C(=O)O [citric acid, sodium citrate]
difference of plasma iron concentrations between before and after administration [2]: 14 to 18 µg/dL
difference of plasma iron concentrations relative to that of second group (saline) ([4]; third group versus second group, during 4 h dialysis): about 4 times
difference of plasma iron concentrations between before and after administration ([4]; third group, 4.5% (w/v) sodium citrate solution by CVC 1.0 mL/h during 4 h dialysis with commercial dialysate): 81 µg/dL
